Test results reported in patent US8754242B2, “Herbicides” (Syngenta Crop Protection LLC, priority 2007, dated 2014).

Assays:
Assay type in all cases: in vivo
[1] = system: Alopecurus myosuroides (ALOMY); test: Test Example 1 pre-emergence herbicidal activity; conditions: Alopecurus myosuroides, 480 h, rate 250 g/ha, evaluated 20 days later, read-out: Pre-emergence activity ALOMY (100=total damage to plant; 0=no damage to plant)
Procedure, shortened: (§1)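 Plants sown in standard soil in pots; sprayed 1 day after sowing (pre-emergence) or after 10 days' glasshouse cultivation (post-emergence) with aqueous spray of compound formulated in acetone plus Emulsogen EL/N-methylpyrrolidone/dipropylene glycol monomethyl ether/X-77 solution. Damage scored 0–100 (100 = total damage) after 20 days (pre) or 15 days (post).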

[2] = system: Avena fatua (AVEFA); test: Test Example 1 pre-emergence herbicidal activity; conditions: Avena fatua, 480 h, rate 250 g/ha, evaluated 20 days later, read-out: Pre-emergence activity AVEFA (100=total damage to plant; 0=no damage to plant)
Procedure, shortened: as §1

[3] = system: Digitaria sanguinalis (DIGSA); test: Test Example 1 pre-emergence herbicidal activity; conditions: Digitaria sanguinalis, 480 h, rate 250 g/ha, evaluated 20 days later, read-out: Pre-emergence activity DIGSA (100=total damage to plant; 0=no damage to plant)
Procedure, shortened: as §1

[4] = system: Echinochloa crus-galli (ECHCG); test: Test Example 1 pre-emergence herbicidal activity; conditions: Echinochloa crus-galli, 480 h, rate 250 g/ha, evaluated 20 days later, read-out: Pre-emergence activity ECHCG (100=total damage to plant; 0=no damage to plant)
Procedure, shortened: as §1

[5] = system: Lolium perenne (LOLPE); test: Test Example 1 pre-emergence herbicidal activity; conditions: Lolium perenne, 480 h, rate 250 g/ha, evaluated 20 days later, read-out: Pre-emergence activity LOLPE (100=total damage to plant; 0=no damage to plant)
Procedure, shortened: as §1

[6] = system: Setaria faberi (SETFA); test: Test Example 1 pre-emergence herbicidal activity; conditions: Setaria faberi, 480 h, rate 250 g/ha, evaluated 20 days later, read-out: Pre-emergence activity SETFA (100=total damage to plant; 0=no damage to plant)
Procedure, shortened: as §1

[7] = system: Alopecurus myosuroides (ALOMY); test: Test Example 1 post-emergence herbicidal activity; conditions: 360 h, rate 125 g/ha, evaluated 15 days later, read-out: Post-emergence activity ALOMY (100=total damage to plant; 0=no damage to plant)
Procedure, shortened: as §1

[8] = system: Avena fatua (AVEFA); test: Test Example 1 post-emergence herbicidal activity; conditions: 360 h, rate 125 g/ha, evaluated 15 days later, read-out: Post-emergence activity AVEFA (100=total damage to plant; 0=no damage to plant)
Procedure, shortened: as §1

[9] = system: Digitaria sanguinalis (DIGSA); test: Test Example 1 post-emergence herbicidal activity; conditions: 360 h, rate 125 g/ha, evaluated 15 days later, read-out: Post-emergence activity DIGSA (100=total damage to plant; 0=no damage to plant)
Procedure, shortened: as §1

[10] = system: Echinochloa crus-galli (ECHCG); test: Test Example 1 post-emergence herbicidal activity; conditions: 360 h, rate 125 g/ha, evaluated 15 days later, read-out: Post-emergence activity ECHCG (100=total damage to plant; 0=no damage to plant)
Procedure, shortened: as §1

[11] = system: Lolium perenne (LOLPE); test: Test Example 1 post-emergence herbicidal activity; conditions: 360 h, rate 125 g/ha, evaluated 15 days later, read-out: Post-emergence activity LOLPE (100=total damage to plant; 0=no damage to plant)
Procedure, shortened: as §1

[12] = system: Setaria faberi (SETFA); test: Test Example 1 post-emergence herbicidal activity; conditions: 360 h, rate 125 g/ha, evaluated 15 days later, read-out: Post-emergence activity SETFA (100=total damage to plant; 0=no damage to plant)
Procedure, shortened: as §1

SMILES | pest or weed control at 250 g/ha [1] [%] | pest or weed control at 250 g/ha [2] [%] | pest or weed control at 250 g/ha [3] [%] | pest or weed control at 250 g/ha [4] [%] | pest or weed control at 250 g/ha [5] [%] | pest or weed control at 250 g/ha [6] [%] | pest or weed control at 125 g/ha [7] [%] | pest or weed control at 125 g/ha [8] [%] | pest or weed control at 125 g/ha [9] [%] | pest or weed control at 125 g/ha [10] [%] | pest or weed control at 125 g/ha [11] [%] | pest or weed control at 125 g/ha [12] [%]
CCc1cc(C)cc(CC)c1C1=C(OC(=O)C2CC2)[C@H]2[C@@H](C1=O)[C@@H]1CC[C@H]2O1 (racemic) [Example P21] | 100 | 100 | 100 | 100 | 100 | 100 | 90 | 100 | 80 | 100 | 100 | 100
CCC(C)C(=O)OC1=C(c2c(C)cc(C)cc2C)C(=O)[C@@H]2[C@H]1[C@H]1CC[C@@H]2O1 (stereo partly drawn) [Example P9] | 100 | 100 | 90 | 80 | 100 | 80 | 100 | 90 | 80 | 90 | 100 | 80
Cc1cc(C)c(C2=C(O)[C@@H]3[C@@H]4O[C@@H](C[C@H]4/C=C/c4ccccc4)[C@@H]3C2=O)c(C)c1 [Example T98] | 30 | 20 | 0 | 30 | 20 | 70 | 70 | 20 | 60 | 80 | 40 | 70
CCc1cc(C)cc(CC)c1C1=C(OC(=O)C2CCCCC2)[C@H]2[C@@H](C1=O)[C@@H]1CC[C@H]2O1 (racemic) [Example P17] | 90 | 90 | 100 | 100 | 100 | 100 | 100 | 90 | 100 | 100 | 100 | 100
CCc1cc(C)cc(CC)c1C1=C(O)[C@@H]2[C@@H]3O[C@@H](C[C@H]3c3ccccc3[N+](=O)[O-])[C@@H]2C1=O [Example T177] | 60 | 50 | 10 | 70 | 70 | 50 | 80 | 70 | 30 | 80 | 30 | 20
Cc1cc(C)c(C2=C(O)[C@H]3[C@@H](C2=O)[C@]2(C)CC[C@@]3(C)O2)c(C)c1 [Example T6] | 80 | 30 | 90 | 90 | 100 | 80 | 80 | 80 | 90 | 90 | 80 | 80
CCC(=O)OC1=C(c2c(CC)cc(C)cc2CC)C(=O)[C@@H]2[C@H]1[C@H]1CC[C@@H]2O1 (racemic) [Example P22] | 100 | 100 | 100 | 100 | 100 | 100 | 100 | 100 | 100 | 100 | 100 | 100
